These results are taken from PubChem BioAssay (NCI).

Assay in all cases: NCI anticancer screen, dose series, 48 h
Assay [1] has as its system DLD-1 colon.
Assay [2] relates to DMS 273 small cell lung.
Assay [3] relates to KM20L2 colon.
Assay [4] concerns LXFL 529 NSCLC.
Assay [5] relates to HS 578T breast.
The test system of assay [6] is PC-3 prostate.
Assay [7] relates to MDA-N.

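Results reflect a 48-hour exposure of cells in 96-well plates to compound at five concentrations. GI50 = concentration required for 50% inhibition of growth. TGI: total growth inhibition.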

In the case of `CN1CCN(CCSC2Cc3cc(Cl)ccc3Sc3ccccc32)CC1` (centres undefined), the TGI in assay [1] worked out at 10.4 µM; in assay [2], 4.28 µM; in assay [3], 4.08 µM; in assay [4] it was 7.34 µM.

In the case of `COC(=O)CCC/C=C\C[C@H]1C=CC(=O)/C1=C/C[C@@H](O)CCc1cccc(C(F)(F)F)c1`, in assay [5], the GI50 was 12.2 µM and the TGI was 50 µM. Also, in assay [6], the GI50 is 2.63 µM and the TGI came to 7.6 µM.

As for `Cc1cc(S(=O)(=O)Nc2nc(N)nc(N3N=CCC3C)n2)c(S)cc1Cl` (centres undefined), the TGI in assay [5], in assay [7] and in assay [6] was above 10 µM each time.

As for `Clc1nc(Oc2ccccc2)nc(-c2cn(-c3ccccc3)c3ccccc23)n1`, in assay [5], the GI50 is 4.66 µM and the TGI was determined as 18.7 µM. For the same compound, in assay [6], the GI50 was 5.03 µM and the TGI worked out at 19.3 µM.

`O=C(Oc1ccc(O)c2c(=O)n3c(cc12)[nH]c1ccccc13)c1ccccc1`: in assay [5], the GI50 is 41.1 µM and the TGI is above 100 µM. Further, in assay [6], the GI50 is 18.2 µM and the TGI was found to be 56 µM.

Take `COc1cc2c(cc1OCc1ccccc1)N=C[C@@H]1C/C(=C/C(=O)NCCCN3C(=O)c4cccc5cccc(c45)C3=O)CN1C2=O`: in assay [5], the GI50 is 0.539 µM and the TGI came to 6.51 µM. In addition, in assay [6], the GI50 is 0.351 µM and the TGI amounted to 9.35 µM.

With `COc1ccc(/C=C/c2cc(OC)c(OC)c(OC)c2)cc1NC(=O)/C=C/c1ccc(F)cc1`, in assay [5], the GI50 is 3.79 µM and the TGI is above 100 µM. Besides, in assay [6], the GI50 was 1.98 µM and the TGI is above 100 µM.

Regarding `CCN(CC)c1ccc(N=Nc2ccc(-c3nc4cccnc4o3)cc2)cc1`, the TGI in assay [1], in assay [2], in assay [3] and in assay [4] was above 100 µM throughout.

With `COc1cc(OC2OC(C)C(O)C(O)C2O)cc2oc(-c3ccc(O)cc3)c(CC=C(C)C)c(=O)c12` (centres undefined), in assay [5], the GI50 is 24 µM and the TGI was above 100 µM. Further, in assay [6], the GI50 is 8.32 µM and the TGI is 28.4 µM.

`CCOC(=O)[C@@H](C)C[C@H](Cc1ccccc1)NC(=O)c1csc([C@@H](C[C@H](C(C)C)N(C)C(=O)[C@@H](NC(=O)[C@H]2C[C@H](O[Si](C)(C)C(C)(C)C)CCN2C)C(C)C)OC(C)=O)n1`: in assay [5], the GI50 was 0.217 µM and the TGI was found to be 1.35 µM. Further, in assay [6], the GI50 is 0.22 µM and the TGI is above 8.33 µM.

For the compound `O=[N+]([O-])c1ccc2[nH]cc(-c3c4ccsc4cc4[nH]c5ccc([N+](=O)[O-])cc5c34)c2c1`, in assay [5], the GI50 is 0.824 µM and the TGI was 5.49 µM. Further, in assay [6], the GI50 was 0.931 µM and the TGI came to 6.36 µM.

As to `C=CC(=O)N1CCCC(n2nc(-c3ccc(Oc4ccccc4)cc3)c3c(N)ncnc32)C1` (centres undefined), the GI50 in assay [5] was 7.66 µM; in assay [6], 10 µM. Further, the TGI was 45.7 µM in assay [5] and 24.2 µM in assay [6].

With `c1ccc2c(c1)[I+]c1ccccc1-2`, the GI50 in assay [5] and in assay [6] was above 50 µM each time. For the same compound, the TGI in assay [5] and in assay [6] was above 50 µM in each case.

As for `O=C1c2cc(Br)ccc2-c2c1c1ccc([N+](=O)[O-])cc1c(=O)n2CCCCl`, in assay [5], the GI50 is 19.5 µM and the TGI is above 72.5 µM. In assay [6], the GI50 was 0.184 µM and the TGI was above 100 µM.

As to `CCOC(=O)CCC(=O)C1c2cccc(O)c2C(=O)c2c(O)cccc21`, the results for the TGI in assay [1] and in assay [2] were 3.21 µM and 2.73 µM, respectively.

Take `COc1ccc2c(c1)C(=O)CC(N)C2` (centres undefined): the TGI in assay [5], in assay [7] and in assay [6] was above 100 µM in each case.

On to `CC1=CSC2=NC(c3ccc(Cl)c(Cl)c3)=CC(c3ccc(Cl)cc3)N12` (centres undefined), for which, in assay [5], the GI50 is above 100 µM and the TGI was above 100 µM. Further, in assay [6], the GI50 is above 100 µM and the TGI was above 100 µM.

For the compound `N#CC(C#N)=C(N)/C(C#N)=C\c1ccnc2ccccc12`, the TGI was 27.5 µM in assay [1], 40.5 µM in assay [2] and 54.3 µM in assay [4].

For the compound `O=C(Nc1ccc(Cl)cc1)Nc1ccc(Cl)c(Cl)c1`, the results for the GI50 in assay [5] and in assay [6] were 4.58 µM and 2.97 µM, respectively. Moreover, the TGI in assay [5] is 85 µM; in assay [6], above 100 µM.

`c1cnc2c(c1)-n1cccc1C1(CCSCC1)NN2` showed a TGI in assay [2] above 100 µM.

For the compound `Oc1ccc(N=Nc2ccc(Cl)cc2)cc1`, the TGI was determined as 73.3 µM in assay [5], 30.6 µM in assay [7] and 29.3 µM in assay [6].

On to `CCCCCCNC(=O)C1=C(C)NC(C)=C(C(=O)NCCCCCC)C1`, for which the TGI in assay [5], in assay [7] and in assay [6] was above 100 µM throughout.

Consider `O=c1cc(-c2ccccc2)[nH]c2cc(Cl)cc(Cl)c12`, for which the TGI in assay [1], in assay [2] and in assay [4] was above 100 µM throughout.

As to `CCCCCCC/C=C/[C@H]1O[C@]23C(=O)C[C@@]4(C[C@@H](OC5OC(CO)C(O)C(O)C5O)C[C@@H]4[C@H]2C=C1C)OC3=O` (some centres undefined), in assay [5], the GI50 was 9.04 µM and the TGI was above 33.3 µM. In addition, in assay [6], the GI50 is 3.81 µM and the TGI turned out to be 12.9 µM.

In the case of `CN(C)CCNc1nc2ccccc2c2c1c1c(n2Cc2ccccc2)-c2ccccc2C1=O`, in assay [5], the GI50 is 11.3 µM and the TGI is 31.5 µM.

For `CCCCNc1nc(NC(C)(C)C)nc(NC(C)(C)C)n1`, in assay [5], the GI50 was 21.1 µM and the TGI was above 100 µM. Further, in assay [6], the GI50 is 4.26 µM and the TGI is above 100 µM.

As for `O=C(O)C1CCc2ccc3ccccc3c2C1c1cccc2ccccc12` (centres undefined), the TGI in assay [5] was above 100 µM; in assay [7], 52.3 µM; in assay [6] it was 41.2 µM.
